T/C data for 16 molecules are collected here from PubChem BioAssay AID192 (DTP/NCI, 2004).

The test system of the test is BDF1 mice, B16 melanoma ip, median survival T/C. Kind of test: NCI In Vivo Anticancer Drug Screen. Data for tumor model B16 Melanoma (intraperitoneal) in B6D2F1 (BDF1) mice. As to conditions: endpoint: median survival time, higher = longer survival. The essentials: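 Compounds were tested in mice carrying transplantable tumors. Survival or tumor size was recorded, and each value is the treated-group measurement (T) divided by that of the vehicle-treated control group (C).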

Where [1] appears, read: dose: 100.0 mg/kg/injection, schedule: Q01DX009 (ip), vehicle: saline with Tween-80.
The mark [2] stands for this setting: dose: 50.0 mg/kg/injection, schedule: Q01DX009 (ip), vehicle: saline with Tween-80.
Where [3] appears, read: dose: 6.25 mg/kg/injection, schedule: Q01DX009 (ip), vehicle: saline with Tween-80.
The mark [4] stands for this setting: dose: 12.5 mg/kg/injection, schedule: Q01DX009 (ip), vehicle: saline with Tween-80.
The mark [5] stands for this setting: dose: 25.0 mg/kg/injection, schedule: Q01DX009 (ip), vehicle: saline with Tween-80.
Where [6] appears, read: dose: 12.5 mg/kg/injection, schedule: Q01DX009 (ip), vehicle: saline.
The mark [7] stands for this setting: dose: 50.0 mg/kg/injection, schedule: Q01DX009 (ip), vehicle: saline.

“And” between values parts separate entries of the source, which are not always exact repeats. Identical values can stand only once. Toxic doses and inconclusive results are not listed.

Regarding `COc1cc2c(cc1OC)C(C=C(c1ccccc1)c1ccccc1)N(C)CC2` (configuration not stated), the T/C by setting is: (dose: 12.5 mg/kg/injection, schedule: Q04DX003 (ip), vehicle: Klucel (hydroxypropylcellulose) (HPC)) 97 % of control; (dose: 25.0 mg/kg/injection, schedule: Q04DX003 (ip), vehicle: Klucel (hydroxypropylcellulose) (HPC)) 97 % of control; (dose: 50.0 mg/kg/injection, schedule: Q04DX003 (ip), vehicle: Klucel (hydroxypropylcellulose) (HPC)) 100 % of control.
`COC(=O)c1nc(-c2ccc3c(n2)C(=O)C(N)=C(OC)C3=O)c(N)c(-c2ccc(OC)c(OC)c2O)c1C`: the T/C is 95 % of control (dose: 0.1 mg/kg/injection, schedule: Q01DX009 (ip), vehicle: saline with Tween-80); 97 % of control (dose: 0.2 mg/kg/injection, schedule: Q01DX009 (ip), vehicle: saline with Tween-80); 105 % of control (dose: 0.4 mg/kg/injection, schedule: Q01DX009 (ip), vehicle: saline with Tween-80); 104 % of control (dose: 0.8 mg/kg/injection, schedule: Q01DX009 (ip), vehicle: saline with Tween-80).
In the case of `Ic1ncnc2c1ncn2C1CCCO1` (configuration not stated), the T/C runs as follows: (dose: 100.0 mg/kg/injection, schedule: Q01DX009 (ip), vehicle: Klucel (hydroxypropylcellulose) (HPC)) 118 % of control; (dose: 200.0 mg/kg/injection, schedule: Q01DX009 (ip), vehicle: Klucel (hydroxypropylcellulose) (HPC)) 104 % of control.
With `CCOC(=O)c1ccc(OC(=O)Nc2ccc(Cl)cc2)cc1`, the T/C by setting is: under setting [1], 96 % of control; (dose: 200.0 mg/kg/injection, schedule: Q01DX009 (ip), vehicle: saline with Tween-80) 92 % of control.
Regarding `NC(N)=Nc1ccc(C(=O)Oc2ccc([N+](=O)[O-])cc2[N+](=O)[O-])cc1`, the T/C by setting is: (dose: 25.0 mg/kg/injection, schedule: Q01DX009 (ip), vehicle: Klucel (hydroxypropylcellulose) (HPC)) 97 % of control; (dose: 50.0 mg/kg/injection, schedule: Q01DX009 (ip), vehicle: Klucel (hydroxypropylcellulose) (HPC)) 91 % of control.
`CCCN(C)/N=N/c1nc[nH]c1C(N)=O`: the T/C under setting [2] was 112 % of control.
In the case of `C[CH2][Ge]([CH2]C)[CH2]C.C[CH2][Ge]([CH2]C)[CH2]C.C[CH2][Ge]([CH2]C)[O][Ge]([CH2]C)[CH2]C`, the T/C by setting is: under setting [3], 101 % of control; under setting [4], 100 % of control; under setting [5], 101 % of control; under setting [2], 91 % of control; under setting [1], 100 % of control.
For the molecule `CCCCCCCCCC(=O)OCCN1CCN(CCCN2c3ccccc3Sc3ccc(C(F)(F)F)cc32)CC1`, the T/C was 97 % of control (dose: 0.09 mg/kg/injection, schedule: Q01DX009 (ip), vehicle: alcohol); 123 % of control (dose: 0.19 mg/kg/injection, schedule: Q01DX009 (ip), vehicle: alcohol); 111 % of control (dose: 0.39 mg/kg/injection, schedule: Q01DX009 (ip), vehicle: alcohol).
In the case of `COC(=O)[C@@]12OC[C@]34[C@H]([C@@H](O)[C@@H]1O)[C@@]1(C)C=C(OC5OC(CO)C(O)C(O)C5O)C(=O)C(C)[C@@H]1C[C@H]3OC(=O)[C@H](OC(=O)C=C(C)C)[C@@H]24` (some centres not stated), the T/C by setting is: (dose: 0.25 mg/kg/injection, schedule: Q01DX009 (ip), vehicle: saline + alcohol) 108 % of control; (dose: 0.5 mg/kg/injection, schedule: Q01DX009 (ip), vehicle: saline + alcohol) 108 % of control; (dose: 1.0 mg/kg/injection, schedule: Q01DX009 (ip), vehicle: saline + alcohol) 108 % of control; (dose: 2.0 mg/kg/injection, schedule: Q01DX009 (ip), vehicle: saline + alcohol) 105 % of control; (dose: 4.0 mg/kg/injection, schedule: Q01DX009 (ip), vehicle: saline + alcohol) 113 % of control; (dose: 8.0 mg/kg/injection, schedule: Q01DX009 (ip), vehicle: saline + alcohol) 103 % of control.
Turning to `CCc1ccc(C2=C(O)C(=O)C(c3ccc(CC)cc3)=C(O)C2=O)cc1`, the T/C is, setting by setting: (dose: 3.12 mg/kg/injection, schedule: Q01DX009 (ip), vehicle: saline with Tween-80) 114 % of control; under setting [3], 103 % of control; under setting [4], 113 % of control and 119 % of control; under setting [5], 112 % of control and 122 % of control.
For `COc1cccc2c1C(=O)c1c(O)c3c(c(O)c1C2=O)C[C@@](O)(C(=O)CO)C[C@@H]3OC1CC(NCc2ccccc2)C(O)C(C)O1` (some centres not stated), the T/C reads like this: (dose: 15.0 mg/kg/injection, schedule: Q01DX001 (ip), vehicle: water) 156 % of control and 171 % of control; (dose: 30.0 mg/kg/injection, schedule: Q01DX001 (ip), vehicle: water) 171 % of control and 175 % of control.
On to `CC(C)=C(C=O)CCC(C)C`, for which the T/C runs as follows: (dose: 25.0 mg/kg/injection, schedule: Q04DX003 (ip), vehicle: saline with Tween-80) 100 % of control; (dose: 50.0 mg/kg/injection, schedule: Q04DX003 (ip), vehicle: saline with Tween-80) 95 % of control; (dose: 100.0 mg/kg/injection, schedule: Q04DX003 (ip), vehicle: saline with Tween-80) 97 % of control and 100 % of control.
Take `FC(F)(F)c1ccc2c(c1)N(CCCNCCN1CCOCC1)c1ccccc1S2`: the T/C by setting is: (dose: 1.56 mg/kg/injection, schedule: Q01DX009 (ip), vehicle: saline) 105 % of control; (dose: 1.56 mg/kg/injection, schedule: Q04DX003 (ip), vehicle: saline) 93 % of control and 95 % of control; (dose: 3.12 mg/kg/injection, schedule: Q01DX009 (ip), vehicle: saline) 88 % of control; (dose: 3.12 mg/kg/injection, schedule: Q04DX003 (ip), vehicle: saline) 102 % of control; (dose: 6.25 mg/kg/injection, schedule: Q04DX003 (ip), vehicle: saline) 100 % of control and 105 % of control; under setting [6], 100 % of control. Also, the T/C was 93 % of control and 107 % of control (dose: 12.5 mg/kg/injection, schedule: Q04DX003 (ip), vehicle: saline); 99 % of control and 100 % of control (dose: 25.0 mg/kg/injection, schedule: Q04DX003 (ip), vehicle: saline); 90 % of control (dose: 50.0 mg/kg/injection, schedule: Q04DX003 (ip), vehicle: saline).
On to `COc1cccc2c1C(=O)c1c(O)c3c(c(O)c1C2=O)C[C@@](O)(C(=O)CO)C[C@@H]3OC1CC(N(C)C)C(O)C(C)O1` (some centres not stated), for which the T/C was 119 % of control (dose: 0.63 mg/kg/injection, schedule: Q01DX001 (ip), vehicle: water); 98 % of control (dose: 1.73 mg/kg/injection, schedule: Q04DX003 (ip), vehicle: water); 117 % of control (dose: 3.6 mg/kg/injection, schedule: Q01DX001 (ip), vehicle: water); 94 % of control and 113 % of control (dose: 4.8 mg/kg/injection, schedule: Q04DX003 (ip), vehicle: water); 166 % of control and 170 % of control (dose: 5.0 mg/kg/injection, schedule: Q01DX001 (ip), vehicle: water); 104 % of control (dose: 6.0 mg/kg/injection, schedule: Q01DX001 (ip), vehicle: water).
As to `NC(CSC(c1ccccc1)(c1ccccc1)c1ccccc1)C(=O)O` (configuration not stated), the T/C (dose: 3.13 mg/kg/injection, schedule: Q01DX009 (ip), vehicle: saline) is 109 % of control; the T/C (dose: 6.25 mg/kg/injection, schedule: Q01DX009 (ip), vehicle: saline) is 118 % of control; the T/C under setting [6] was 120 % of control; the T/C under setting [7] is 150 % of control.
As to `NC(=S)c1ncn(C2OC(CO)C(O)C2O)c1N` (configuration not stated), the T/C reads like this: under setting [6], 107 % of control; (dose: 25.0 mg/kg/injection, schedule: Q01DX009 (ip), vehicle: saline) 105 % of control; under setting [7], 105 % of control; (dose: 100.0 mg/kg/injection, schedule: Q01DX009 (ip), vehicle: saline) 102 % of control; (dose: 200.0 mg/kg/injection, schedule: Q01DX009 (ip), vehicle: saline) 103 % of control; (dose: 400.0 mg/kg/injection, schedule: Q01DX009 (ip), vehicle: saline) 95 % of control.
